Common to all, as to type: biochemical
In one test the target is T1, IKKα (Homo sapiens, UniProt O15111).
T1 sequence (O15111 1-745): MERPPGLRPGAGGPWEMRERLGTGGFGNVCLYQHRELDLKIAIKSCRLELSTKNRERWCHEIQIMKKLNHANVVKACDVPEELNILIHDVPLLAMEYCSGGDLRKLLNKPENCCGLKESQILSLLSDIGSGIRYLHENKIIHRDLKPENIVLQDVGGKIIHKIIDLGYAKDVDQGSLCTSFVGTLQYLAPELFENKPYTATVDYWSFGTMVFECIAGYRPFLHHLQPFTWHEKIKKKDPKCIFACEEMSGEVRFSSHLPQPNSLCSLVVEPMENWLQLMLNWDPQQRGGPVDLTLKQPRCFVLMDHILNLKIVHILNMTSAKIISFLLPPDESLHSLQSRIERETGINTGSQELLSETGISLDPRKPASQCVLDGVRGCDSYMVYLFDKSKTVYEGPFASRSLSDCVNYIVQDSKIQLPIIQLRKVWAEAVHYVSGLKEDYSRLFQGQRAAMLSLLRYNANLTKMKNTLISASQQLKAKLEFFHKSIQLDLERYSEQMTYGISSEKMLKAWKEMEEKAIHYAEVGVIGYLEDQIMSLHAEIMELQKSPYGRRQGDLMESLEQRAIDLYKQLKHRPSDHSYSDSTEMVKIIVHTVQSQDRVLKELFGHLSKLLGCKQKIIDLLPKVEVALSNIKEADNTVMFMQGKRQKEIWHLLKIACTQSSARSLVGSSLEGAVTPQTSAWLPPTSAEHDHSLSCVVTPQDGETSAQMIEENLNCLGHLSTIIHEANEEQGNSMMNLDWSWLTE
The test can be described thus: in-house DELFIA kinase assay, IKKα. From the text:
(§1) To examine the pyrrolo[2,3 -b]pyridines as an alternative scaffold, we adopted the AIPP core because it had similar dimensions to 1 SU909, with HBD/HBA motifs positioned at the scaffold extremities to interact with both the hinge region and the G-loop wall of IKKα, a rationale we had previously proposed as the basis for imparting selectivity. A preliminary set of AIPP derivatives was designed to explore its utility as an IKK-targeting scaffold, whilst incorporating additional functionality through which to introduce selectivity for the IKKα isoform (2-4 SU1087, SU1266 and SU1253; FIG. 3). This was achieved by initially adopting two different approaches: either appending a hydrophobic moiety to the pyrrolo[2,3 -b]pyridine motif as a fused form to afford the tricyclic derivatives 2 and 3 SU1266 and SU1087, or as a phenyl substituent to introduce flexibility with the central pyrrolo[2,3 -b]pyridine moiety in 4 SU1253 . […] The pyrrolo[2,3 -b]pyridine was bound to the hinge region in the classical HBA/HBD motif with the GK+3 NH and C═O backbone, whilst the aminoindazole projected towards the top of the pocket to interact with the G-loop (FIG. 4A). […] In both isoforms, the 2 -phenyl moiety was oriented out from the hinge towards the exposed solvent area.

Another test concerns the target T2, IKKβ (Homo sapiens, UniProt O14920).
T2 sequence (O14920 1-756): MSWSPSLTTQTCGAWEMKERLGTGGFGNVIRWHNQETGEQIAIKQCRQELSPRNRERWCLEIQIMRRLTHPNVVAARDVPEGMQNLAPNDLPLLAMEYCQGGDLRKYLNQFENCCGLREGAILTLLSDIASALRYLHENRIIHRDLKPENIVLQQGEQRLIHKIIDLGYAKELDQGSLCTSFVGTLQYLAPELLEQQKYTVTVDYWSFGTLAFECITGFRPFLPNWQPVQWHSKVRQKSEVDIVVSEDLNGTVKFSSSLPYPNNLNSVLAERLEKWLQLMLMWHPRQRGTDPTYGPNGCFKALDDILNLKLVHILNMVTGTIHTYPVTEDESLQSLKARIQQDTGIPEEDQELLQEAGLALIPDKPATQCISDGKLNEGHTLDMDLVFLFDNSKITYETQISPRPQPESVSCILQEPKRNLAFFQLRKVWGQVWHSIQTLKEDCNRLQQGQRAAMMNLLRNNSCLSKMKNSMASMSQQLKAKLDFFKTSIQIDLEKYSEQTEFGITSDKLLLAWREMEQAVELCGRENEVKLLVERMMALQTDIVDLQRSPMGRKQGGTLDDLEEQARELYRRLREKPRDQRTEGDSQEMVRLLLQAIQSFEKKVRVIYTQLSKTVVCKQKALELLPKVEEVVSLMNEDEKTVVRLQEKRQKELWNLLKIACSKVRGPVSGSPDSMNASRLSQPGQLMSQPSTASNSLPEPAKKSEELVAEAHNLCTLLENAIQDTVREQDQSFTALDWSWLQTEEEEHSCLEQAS
The test can be described thus: in-house DELFIA kinase assay, IKKβ. An excerpt: To examine the pyrrolo[2,3 -b]pyridines as an alternative scaffold, we adopted the AIPP core because it had similar dimensions to 1 SU909, with HBD/HBA motifs positioned at the scaffold extremities to interact with both the hinge region and the G-loop wall of IKKα, a rationale we had previously proposed as the basis for imparting selectivity. A preliminary set of AIPP derivatives was designed to explore its utility as an IKK-targeting scaffold, whilst incorporating additional functionality through which to introduce selectivity for the IKKα isoform (2-4 SU1087, SU1266 and SU1253; FIG. 3). This was achieved by initially adopting two different approaches: either appending a hydrophobic moiety to the pyrrolo[2,3 -b]pyridine motif as a fused form to afford the tricyclic derivatives 2 and 3 SU1266 and SU1087, or as a phenyl substituent to introduce flexibility with the central pyrrolo[2,3 -b]pyridine moiety in 4 SU1253 .

The subject of the next test is IKKα over IKKβ. Put plainly: selectivity for IKKα over IKKβ from the kinase assay.
Excerpt: as §1
To shift the selectivity profile towards IKKα, we selected 4 SU1253 for structural optimization based on the notion that sigma-bond rotation between the phenyl ring and the pyrrolo[2,3 -b]pyridine would inbuild the flexibility required to engage with the three dimensional array of residues nearby to exploit differences between the two isoforms. Furthermore, this would enable the inclusion of moieties that could also project into solvent and address solubility considerations. Small groups (NH2, OH, OMe, OEt and F) were initially introduced into the phenyl ring to evaluate their impact on the selectivity profile against both IKKs (5 a-g SU1354 -SU1373, Table 2 ). Our goal was to achieve a 1:50 selectivity ratio of IKKα to IKKβ, with a minimum IKKβ inhibitory Ki of 500 nM.

Regarding `CC(C)COc1cccc(-c2cc3c(-c4ccc5[nH]nc(N)c5c4)ccnc3[nH]2)c1` [5o SU1367, 5-(2-(3 -Isobutoxyphenyl)-1 H-pyrrolo[2,3-b]pyridin-4-yl)-1 H-indazol-3-amine], the Ki (usually the dissociation constant of the complex between target and ligand, obtained from inhibition or displacement) on IKKα is 19 nM; on IKKβ, 458 nM. The “IKKβ inhibition, in words” value on IKKβ is “lowest activity against IKKβ”. For the same compound, the “selectivity for IKKα over IKKβ, in words” value in the test on IKKα over IKKβ is recorded as “tended to improve selectivity”.
In the case of `Nc1n[nH]c2ccc(-c3ccnc4[nH]c(-c5ccc(OCc6ccccc6)cc5)cc34)cc12` [5s SU1334], the Ki worked out at 16 nM at IKKα and 189 nM at IKKβ. Besides, in the test on IKKα over IKKβ, the “selectivity for IKKα over IKKβ, in words” value is on record as “tended to improve IKKβactivity to reduce selectivity”.
The matching figures for `Cc1ccc(S(=O)(=O)Nc2ccc(-c3cc4c(-c5ccc6[nH]nc(N)c6c5)ccnc4[nH]3)cc2)cc1` [5u SU1283, N-(4-(4-(3 -Amino-1 H-indazol-5-yl)-1 H-pyrrolo[2,3-b]pyridin-2-yl)phenyl)-4-methylbenzenesulfonamide]: 4 nM, 67 nM and “tended to improve IKKβactivity to reduce selectivity”.
The corresponding values for `Nc1n[nH]c2ccc(-c3ccnc4[nH]c(-c5ccc(OCc6ccccc6)nc5)cc34)cc12` [6d SU1350, 5-(2-(6-(Benzyloxy)pyridin-3-yl)-1 H-pyrrolo[2,3-b]pyridin-4-yl)-1 H-indazol-3-amine] are 12 nM, 22 nM and “reduced selectivity”.
Regarding `COCCNC(=O)c1cccc(-c2cc3c(-c4ccc5[nH]nc(N)c5c4)ccnc3[nH]2)c1` [5m SU1316, 3-(4-(3 -Amino-1 H-indazol-5-yl)-1 H-pyrrolo[2,3-b]pyridin-2-yl)-N-(2-methoxyethyl)benzamide], the inhibition constant (Ki) was 15 nM at IKKα and 107 nM on IKKβ. Moreover, at IKKβ, the “IKKβ inhibition, in words” value is on record as “good IKKβ inhibition”.
Regarding `COCCNc1cc(OCc2ccccc2)cc(-c2cc3c(-c4ccc5[nH]nc(N)c5c4)ccnc3[nH]2)c1` [6c SU1365, 5-(2-(3-(Benzyloxy)-5-((2-methoxyethyl)amino)phenyl)-1 H-pyrrolo[2,3-b]pyridin-4-yl)-1 H-indazol-3-amine], the inhibition constant (Ki) is 26 nM at IKKα and 1530 nM at IKKβ.
For the compound `Nc1n[nH]c2ccc(-c3ccnc4[nH]c(-c5cc(F)nc(CNc6ccccc6)c5)cc34)cc12` [6f SU1394, 5-(2-(2 -Fluoro-6-((phenylamino)methyl)pyridin-4-yl)-1 H-pyrrolo[2,3-b]pyridin-4-yl)-1 H-indazol-3-amine], the figures for the Ki on IKKα and at IKKβ were 33 nM and 503 nM, respectively.
The matching figures for `Nc1n[nH]c2ccc(-c3ccnc4[nH]c(-c5cc(F)nc(SCc6ccccc6)c5)cc34)cc12` [6i SU1380, 5-(2-(2-(Benzylthio)-6-fluoropyridin-4-yl)-1 H-pyrrolo[2,3-b]pyridin-4-yl)-1 H-indazol-3-amine]: 127 nM and 3000 nM.
The matching figures for `Nc1n[nH]c2ccc(-c3ccnc4[nH]c(-c5ccnc(SCc6ccccc6)c5)cc34)cc12` [6h SU1615, 5-(2-(2-(Benzylthio)pyridin-4-yl)-1 H-pyrrolo[2,3-b]pyridin-4-yl)-1 H-indazol-3-amine]: 5 nM and 1180 nM.
Take `Nc1n[nH]c2ccc(-c3ccnc4[nH]c(-c5cccc(S(=O)(=O)N6CCOCC6)c5)cc34)cc12` [5aa SU1311, 5-(2-(3-(Morpholinosulfonyl)phenyl)-1 H-pyrrolo[2,3-b]pyridin-4-yl)-1 H-indazol-3-amine]: the results for the inhibitory constant (Ki) on IKKα and at IKKβ were 25 nM and 149 nM, respectively.
As for `Nc1n[nH]c2ccc(-c3ccnc4[nH]c(-c5cccc(O)c5)cc34)cc12` [5d SU1348, 3-(4-(3 -Amino-1 H-indazol-5-yl)-1 H-pyrrolo[2,3-b]pyridin-2-yl)phenol], the inhibition constant (Ki) amounted to 5 nM at IKKα and 26 nM at IKKβ.
Take `COc1cccc(-c2cc3c(-c4ccc5[nH]nc(N)c5c4)ccnc3[nH]2)c1` [5e SU1332, 5-(2-(3 -Methoxyphenyl)-1 H-pyrrolo[2,3-b]pyridin-4-yl)-1 H-indazol-3-amine]: the values for the Ki at IKKα and on IKKβ were 5 nM and 40 nM, respectively.
For `Nc1n[nH]c2ccc(-c3ccnc4[nH]c5ccccc5c34)cc12` [3 SU1087, 5-(9 H-pyrido[2,3-b]indol-4-yl)-1 H-indazol-3-amine], the Ki at IKKα is 3 nM; on IKKβ, 5 nM.
On to `COCCC(=O)Nc1cccc(-c2cc3c(-c4ccc5[nH]nc(N)c5c4)ccnc3[nH]2)c1` [5l SU1317, N-(3-(4-(3 -Amino-1 H-indazol-5-yl)-1 H-pyrrolo[2,3-b]pyridin-2-yl)phenyl)-3-methoxypropanamide], for which the inhibition constant (Ki) amounted to 6 nM at IKKα and 25 nM at IKKβ. In addition, the “IKKβ inhibition, in words” value at IKKβ is recorded as “good IKKβ inhibition”.
In the case of `Nc1n[nH]c2ccc(-c3ccnc4[nH]c(-c5cccc(OCC6CCOCC6)c5)cc34)cc12` [5x SU1335, 5-(2-(3-((Tetrahydro-2 H-pyran-4-yl)methoxy)phenyl)-1 H-pyrrolo[2,3-b]pyridin-4-yl)-1 H-indazol-3-amine], at IKKα, the Ki stood at 8 nM. Further, at IKKβ, the “IKKβ inhibition, in words” value was “good IKKβ inhibition” and the inhibitory constant (Ki) came out at 122 nM.
Take `Nc1n[nH]c2ccc(-c3ccnc4[nH]c(-c5cccc(C(=O)O)c5)cc34)cc12` [5h SU1303, 3-(4-(3 -Amino-1 H-indazol-5-yl)-1 H-pyrrolo[2,3-b]pyridin-2-yl)benzoic acid]: the figures for the inhibition constant (Ki) at IKKα and at IKKβ were 8 nM and 168 nM, respectively.
Turning to `Nc1n[nH]c2ccc(-c3ccnc4[nH]c5c(c34)CCCC5)cc12` [2 SU1266, 5-(6,7,8,9 -Tetrahydro-5 H-pyrido[2,3-b]indol-4-yl)-1 H-indazol-3-amine], the Ki on IKKα came out at 2 nM; at IKKβ it was 77 nM.
